Ends that are not written are not given here.

Common to all, as to type: cell-based, mouse
Data set [1] has as its system CTL clone B-24. In words: Cytotoxicity assay (51Cr release) with CTL clone B-24. To be noted: peptide pulsed P1.HTR target cells.
Description: Cytotoxicity assay. Tumor cells were labeled by incubating 2×10^6 cells with 2 MBq of Na2^51CrO4, (New England Nuclear, Boston, Mass.) in 0.3 ml of medium for 90 min at 37° C. under 5% CO2 in air. The cells were washed and used as targets. […] In antibody blocking assays, serially diluted mAb (100 μl) was added to the mixture of effector cells and 10^4 labeled target cells (100 μl). After incubation for 3.5 hr at 37° C. under 5% CO2 in air, the supernatants were removed and their radioactivity was measured. The percentage of specific lysis was calculated by the following equation: (a-b)/(c-b)×100, where a is the radioactivity in the supernatant of target cells mixed with effector cells, b is the radioactivity in the supernatant of target cells incubated alone, and c is the radioactivity in the supernatant after lysis of target cells with 1% NP-40.
The subject of data set [2] is CTL clone B-24. Kind of data set: IFNγ ELISPOT assay with CTL clone B-24, peptide-pulsed stimulator cells and antibody blocking. To be noted: 5,000 B-24 cells, 10,000 CMS8 stimulator cells pulsed with peptide, 96-well plates. The procedure: ELISPOT assay. […] CTL were incubated with stimulator cells on the coated membrane in 96- or 24-well plates for 18 hr at 37° C. under 5% CO2 in air. After culture, the membranes were thoroughly washed with distilled water and incubated with detection antibody for 90 min at 37° C. The IFNγ spots were developed by alkaline phosphatase-conjugated substrate kit (Bio-Rad, Hercules, Calif.) and counted with a dissecting microscope.

The subject of data set [3] is AT-1 CTL. Kind of data set: Cytotoxicity assay (4 hr 51Cr release) with AT-1 CTL. The procedure:
In FIG. 10A, CMS8 cells were ^51Cr labeled and pulsed with the peptide at different concentrations. Cytotoxicity was determined by 4 hr ^51Cr release assay. Effector to target cell ratio was 10. In FIG. 10B, 1×10^4 AT-1 CTL was stimulated with 1×10^4 CMS8 cells in the presence of the 1.0 μM peptide. IFNγ in the supernatant was measured by ELISA.
Cytotoxicity assay. Tumor cells were labeled by incubating 2×10^6 cells with 2 MBq of Na2^51CrO4 (New England Nuclear, Boston, Mass.) in 0.3 ml of medium for 90 min at 37° C. under a 5% CO2 in air. The cells were washed and used as targets. For peptide sensitization, labeled target cells were incubated with peptides at 37° C. for 30 min […]. In direct assays, 10^4 labeled target cells (100 μl) were incubated with effector cells (100 μl) cells. In antibody blocking assays, serially diluted mAb (100 μl) was added to the mixture of effector cells and 10^4 labeled target cells (100 μl). After incubation for 4 hr at 37° C. under a 5% CO2 in air, the supernatants were removed and their radioactivity was measured. The percentage of specific lysis was calculated by the following equation: (a−b)×100/(c−b), where a is the radioactivity in the supernatant of target cells mixed with effector cells, b is that in the supernatant of target cells incubated alone, and c is that in the supernatant after lysis of target cells with 1% NP-40.

The test system of data set [4] is AT-1 CTL. In words: IFNγ ELISA of AT-1 CTL stimulated with transfected or peptide-pulsed CMS8 cells. To be noted: 1.0 μM synthetic peptide, 24 hr. The procedure:
FIG. 8 depicts deletion mutants and introduction of point mutations in S35. IFNγ production in the supernatant secreted by AT-1 CTL against various constructs was determined by ELISA after culture for 24 hr with transfected CMS8 cells. PCR fragments with deletion were amplified from S35 cDNA and cloned into pCI-neo vector with EcoR I and Sal I sites. Point mutations at nt 699 (A to C) and nt 701 (G to A) in Exp. III were introduced using site-directed mutagenesis kits.
9-mer overlapping peptides were synthesized in the ORF of the third reading frame (“3RF”) of S35. 1×10^4 AT-1 cells were cultured with 1×10^4 CMS8 cells in the presence of 1.0 μM synthetic peptides for 24 hr and IFNγ in the supernatant was measured by ELISA. H-2D^d peptide motifs are shown as XGPXXXXXL (SEQ ID NO: 26) and XGAXXXXXL (SEQ ID NO:27). The synthetic peptides are MERTPIQLGAEAIFRLVLM (SEQ ID NO:15); MERTPIQLG (SEQ ID NO:16); ERTPIQLGA (SEQ ID NO:17); RTPIQLGAE (SEQ ID NO:18); TPIQLGAEA (SEQ ID NO:19); PIQLGAEAI (SEQ ID NO:20); IQLGAEAIF (SEQ ID NO:21); QLGAEAIFR (SEQ ID NO:22); LGAEAIFRL (SEQ ID NO:10); GAEAIFRLV (SEQ ID NO: 23); AEAIFRLVL (SEQ ID NO:24); and EAIFRLVLM (SEQ ID NO:25).
IFNγ ELISA. CTL were stimulated with targets for 18 hr. and IFNγ in the culture supernatant was assayed by the sandwich ELISA. […]

Data set [5] concerns AT-1 CTL. In words: IFNγ ELISPOT assay with AT-1 CTL. The source says:
Transfection. Recombinant plasmids were purified by Wizard Plus Series 9600™ DNA purification system (Promega, Co., Madison, Wis.) after amplification of bacteria and transfected into 1×10^5 or 1×10^4 cells 24- or 96-well plates, respectively, with plasmid pdl3027 containing the polyoma T antigen (Dailey and Basilico, J. Virol. 54:739-749, 1985) using lipofectamine (GIBCO BRL, Rockville, Md.). After culture for 24 hr, the transfected cells were collected and plated onto anti-IFNγ mAb-coated nitrocellulose membranes in culture plates. AT-1 CTL were then added for ELISPOT assay.
ELISPOT assay. Nitrocellulose disk membranes (14 mm diameter) and 96-well nitrocellulose membrane-based plates (Millipore S4510, Millipore Corp., Bedford, Mass.) were coated with anti-IFNγ mAb (R4-6A2) in 0.05 M bicarbonate buffer (pH 9.6) at 4° C. overnight. After washing, membranes were blocked with RPMI 1640 containing 10% FCS and 50 μM 2-mercaptoethanol for 60 min at 37° C. CTL were incubated with stimulator cells on the coated membrane in 24- or -96well plates for 18 hr at 37° C. under a 5% CO2 in air. […] The IFNγ spots were developed by alkaline phosphatase-conjugated anti-rabbit IgG antibody and substrate kit (Bio-Rad, Hercules, Calif.) and counted with a dissecting microscope.

IPGLPLSL [pRL1a, IPGLPLSL]: in data set [1], the “cytotoxicity of B-24 against peptide pulsed P1.HTR” value is reported as “showed cytotoxicity”. Take “ISTQNHRALDLVA (listed as Mus musculus) [T2H]”: the “number of IFNγ spots” value in data set [2] is recorded as “no spot”.

Consider LGAEAIFRL (listed as Mus musculus), for which the “inhibition of Meth A (sv) lysis by AT-1 CTL by peptide pulsed P815” value in data set [3] is given as “completely inhibited”. In addition, in data set [3] (4 hr 51Cr release, effector to target cell ratio 10), the “peptide concentration at which AT-1 CTL lysis of peptide pulsed CMS8 was detected” value was in the range of 20 to 30 nM. The “stimulation of AT-1 for IFNγ production by peptide pulsed CMS8 cells” value in data set [4] is reported as “stimulation was observed”. With LSPFPFDL [p2Ca], in data set [2], the “number of IFNγ spots” value is given as “no spot”.

B1: S35: cDNA clone, 937 bp long, from Meth A (sv) cDNA library, coding for antigen recognized by AT-1 (nucleic acid, listed as Mus musculus)
DNA: TTAAAAGGGAGATGGAAAGGACTCCAATCCAATTAGGGGCAGAAGCTATCTTTAGACTAGTACTAATGTGGTGAGTATCCTGCCTCACTTAACATCCTTAACCTAGCCTGTGCTTCAGGGAAAGGAAACAAAAGATAGATATATAAAGGCTATTTACTCTGCAAGCCAAACCAAAATTTTGGTACAGAAAATGACAAAGTTTCTTTTTCTCAATAGTAGGAATGTTCTGTGTTCCTAGCCAAAAATTTGTCATCAGTGTCCCTGTGGCTCCCATCTGTCTTTCCTGACCCCCATGATTACTTTTCACTGACAATATAAATCTTAAAAAGCTTTGAGACCAGTGTGCTGATCTAGTTTTTTAAGTTTTGGGTTTTGTTGTTGTGTTTTGGTTTTGGTGTTTTTACGTTTTATTGACTTACAAGCTTTCACTATGTATCCCAGACTGGCTTTGAACTCAGGACCTTCCTGCCTTAGTCTCCCAGGTGCTGAGATTGTGGGGCTGTGTCACTATATTACAACTAATATTTATCAGAAAAATGTTCCTTTTTTGGAAGAAAATGAAGAAAGTGCTGTTTTTGCACTTATCAATTGAGGGGCTGATTTTGATTCGCTCAAGAAAATAGCAGTTTTAACCTAGACATTTGCTGTGGGGACTTGGAACTTTAACTTGGGGTGTCGCTAACTCTACGCTTTCTTCTAGGTCACCATTACTCCCAGCTCCATGAGGAAGATATGTACATACTTTCGTAGAAAGACTCAAGATGACTTCTGCAGTCCTGAACACTCAACTGAATTATAGATGCTAATCTGAAGTTCATTGAACTTGGGTCTACAAAGATTTTTTAAAAAGGCTTTAAAATTCTGGTCTTTAAGAAAATGGTCATCTTTTCATTTTGGAAAAAGTCCTTCTACTCTTTAGCAGACCTAGTCAGGCCCC
In the case of B1, the “stimulation of AT-1 by cells transfected with cDNA clone” value in data set [5] (CMS5a, CMS8 and CMS13, or H-2D^d-transfected L cells) was “stimulated”; in data set [5] (H-2L^d-transfected L cells), “not”.

Source of the values: US20030003485A1, “Methods for identifying antigens” (Ludwig Institute for Cancer Research, priority 2001, published 2003).
